According to patent publication US20030091557A1, “Methods and compositions for modulating ACE-2 activity” (priority 2001, published 2003):
Entries after “also recorded” stand apart in the source; their conditions may differ. Where a SMILES comes first, the peptide text is derived from it. Bridges are numbered along the chain shown (N, C = ends).

Tests used:
[1] = molecular target: T1, ACE-2 (Homo sapiens, UniProt Q9BYF1); test: Fluorometric ACE-2 inhibition assay with peptide M-2195 as substrate; assay type: biochemical; set-up: nucleotides corresponding to the extracellular domain (M1-S740); FLAG; made in house; host or cells: Sf9 insect cells, recombinant baculovirus (transfer vector pA2); enzyme purified from conditioned media; conditions: inhibition of ACE-2 activity, M-2195 substrate; class by % inhibition at ~100 μM and IC50
Procedure: Substrate stock (10 μL of 10× concentration) was added to each well to be tested in blocks of three vertically down the plate. The reaction was monitored on a Spectrafluor Plus (Tecan) at an excitation wavelength of 340 nm and an emission wavelength of 400 nm (+/−35 nm) every 30 seconds for a time period of 10 minutes.
ACE-2 cleaves off the C-terminal lysine from the peptide with a concomitant increase in fluorescence signal.
The assays were performed in 96-well clear-bottom black plates (Costar, 07-200-590). In each well, 0.45 μg (5 pmoles) of ACE-2 is added to 90 μL of an assay solution containing 100 mM TRIS at pH 7.4, 0.1% Tween, and 0.4% DMSO. Substrate stock at 10 μL of 10× concentration is added to each well (for example, 10 μL of 1 mM stock for a final 100 μM concentration). The reaction was monitored on a Spectrafluor Plus (Tecan) at an excitation wavelength of 340 nm and an emission wavelength of 400 nm (+/−35 nm) every 30 seconds up to 10 minutes. All samples were measured in triplicate. […]
Target sequence in this assay (Q9BYF1 18-740): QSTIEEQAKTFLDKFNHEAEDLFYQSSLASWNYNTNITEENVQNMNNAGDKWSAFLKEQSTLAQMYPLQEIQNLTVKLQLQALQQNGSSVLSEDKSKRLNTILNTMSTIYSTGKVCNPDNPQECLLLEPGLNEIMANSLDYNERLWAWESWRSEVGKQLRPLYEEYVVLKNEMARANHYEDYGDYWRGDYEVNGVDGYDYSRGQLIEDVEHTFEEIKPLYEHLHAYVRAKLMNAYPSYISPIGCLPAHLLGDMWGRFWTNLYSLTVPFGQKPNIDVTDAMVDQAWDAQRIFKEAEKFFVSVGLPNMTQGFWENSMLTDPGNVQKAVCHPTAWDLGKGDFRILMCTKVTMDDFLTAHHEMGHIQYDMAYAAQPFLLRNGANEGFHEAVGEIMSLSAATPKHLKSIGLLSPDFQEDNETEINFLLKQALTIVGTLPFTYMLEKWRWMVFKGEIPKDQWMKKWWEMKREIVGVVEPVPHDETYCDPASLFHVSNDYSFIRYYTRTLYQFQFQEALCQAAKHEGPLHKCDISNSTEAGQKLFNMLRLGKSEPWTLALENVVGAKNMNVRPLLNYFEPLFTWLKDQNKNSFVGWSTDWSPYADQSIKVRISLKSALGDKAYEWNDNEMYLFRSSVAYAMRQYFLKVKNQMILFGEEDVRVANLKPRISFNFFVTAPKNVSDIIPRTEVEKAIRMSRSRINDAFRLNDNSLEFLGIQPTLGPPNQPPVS

[2] = molecular target: T1, ACE-2; conditions: cited from earlier work
Target sequence in this assay (Q9BYF1 18-805): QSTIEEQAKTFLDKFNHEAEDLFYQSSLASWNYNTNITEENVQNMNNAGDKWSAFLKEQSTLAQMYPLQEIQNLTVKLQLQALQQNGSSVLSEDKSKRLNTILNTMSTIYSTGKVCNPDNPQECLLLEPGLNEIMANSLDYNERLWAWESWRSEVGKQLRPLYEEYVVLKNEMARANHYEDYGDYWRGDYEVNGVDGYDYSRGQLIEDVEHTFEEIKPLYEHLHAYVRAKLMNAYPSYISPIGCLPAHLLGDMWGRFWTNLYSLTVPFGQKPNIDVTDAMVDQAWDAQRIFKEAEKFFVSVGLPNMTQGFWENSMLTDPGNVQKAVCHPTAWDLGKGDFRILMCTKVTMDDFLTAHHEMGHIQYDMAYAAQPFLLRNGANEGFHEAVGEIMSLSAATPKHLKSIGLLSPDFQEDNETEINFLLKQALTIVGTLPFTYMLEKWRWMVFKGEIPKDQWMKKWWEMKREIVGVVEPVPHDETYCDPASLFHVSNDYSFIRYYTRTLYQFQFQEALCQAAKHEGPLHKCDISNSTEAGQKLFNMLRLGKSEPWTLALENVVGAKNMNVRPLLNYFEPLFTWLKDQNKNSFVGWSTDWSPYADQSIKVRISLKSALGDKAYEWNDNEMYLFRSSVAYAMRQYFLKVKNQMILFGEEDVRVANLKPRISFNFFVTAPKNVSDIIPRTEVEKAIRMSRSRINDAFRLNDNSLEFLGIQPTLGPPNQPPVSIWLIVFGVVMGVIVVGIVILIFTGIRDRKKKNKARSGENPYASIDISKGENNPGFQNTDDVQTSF

[3] = tested on: awake, free-ranging Sprague-Dawley rats; test: Arterial pressure in awake, free-ranging Sprague-Dawley rats, intravenous infusion; assay type: in vivo; conditions: awake rat
Procedure: FIG. 2. The effect of A1-9 on (A) mean arterial pressure ±SEM in the awake and freely-ranging rat (n=6 rats). Average mean arterial and pulse pressure as well as heart rate data were derived from the last 5 min of a 20 min continuous intravenous infusion period. * indicates a significant difference compared to vehicle-treated rats following analysis of variance and Dunnett's post-hoc test. A1-9 or angiotensin II (AII) continuous infusion doses are in μg/kg/min.
FIG. 3. The effect of A1-9 on angiotensin II-mediated pressor responses in normotensive awake male rats. Data are reported as average mean arterial pressure ±SEM (n=6 rats).
To investigate the effects of A1-9 on arterial pressure, A1-9 was administered to awake, free-ranging Sprague-Dawley rats via indwelling intravenous and arterial catheters. Intravenous infusion of A1-9 (1-3 μg/kg/min) in the awake rat produced a dose-dependent tonic increase in mean arterial pressure to a maximum of approximately 30 mmHg (FIG. 2). […] These responses seen with A1-9 were similar in magnitude to those induced by angiotensin II.
To examine any interactions induced by coadministration of A1-9 and angiotensin II, arterial pressure was monitored in the awake rat after they received either A1-9 (1 μg/kg/min) or saline coinfused with angiotensin II (1-100 ng/kg/min).

[4] = tested on: isolated aortic vascular rings; test: Developed isometric tension of isolated aortic vascular rings; set-up: species or system rat
Text: FIG. 1. Synergistic effects of Angiotensin 1-9 (A1-9) on angiotensin II (AII)-induced vasoconstriction, representative experiment (experiment 9 from Table 3). Data are presented as the mean percentage of the maximal contractile response as defined by full KCl depolarization following treatment with angiotensin peptides for four separate rings used to determine average response at each concentration. Generated tension was plotted against peptide concentration and the resulting concentration-response curves were subjected to regression analysis to determine whether the effects of the combination of A1-9 and angiotensin II produced additivity or synergy.
The effects of graded doses of A1-9 (Fields et al., Peptide Research 4: 95-101 (1991)) or A1-10 (substrate control) alone or in combination (Tallarida, Drug Synergism and Dose-Effect Data Analysis, Chapman and Hall/CRC, New York (2000), Tallarida et al., Life Science 61: PL417-425 (1997)) with angiotensin II were examined on isolated aortic vascular rings developed tension in response to vasoactive substances. Aortas were removed from mature male Sprague-Dawley rats, cleared of connective tissue, and cut into 1 mm rings. Rings were mounted to an isometric force transducer and placed in Krebs-Henseleit solution bubbled with 95% O2/5% CO2 at 37° C. Rings were exposed to a 2 g preload, relaxed and then exposed to various concentrations of angiotensin peptides alone or in combination. Following angiotensin peptide dosing, rings were fully constricted with KCl to determine the maximum degree of vasoconstriction.

In the case of `CC(=O)NCC(=O)N[C@@H](CC(=O)O)C(=O)N[C@@H](Cc1ccccc1)C(=O)N[C@@H](CO)C(=O)N1CCC[C@H]1C(=O)N[C@H]1CSSC[C@@H](C(=O)N2CCC[C@H]2C(=O)N[C@@H](CO)C(=O)NCC(=O)N[C@@H](CC(=O)O)C(=O)N2CCC[C@H]2C(=O)N[C@@H](CCC(=O)O)C(=O)NCC(=O)NCC(=O)NCC(N)=O)NC(=O)[C@H](C(C)C)NC(=O)[C@H](Cc2c[nH]c3ccccc23)NC(=O)[C@H](Cc2c[nH]c3ccccc23)NC(=O)[C@@H]2CCCN2C(=O)[C@H](CO)NC(=O)[C@H](Cc2c[nH]cn2)NC(=O)[C@H](CCCNC(=N)N)NC(=O)[C@H](CC(C)C)NC(=O)[C@H](C)NC(=O)[C@H](CCCCN)NC1=O` [DX-602] (Ac-GDFSPCKALRHSPWWVCPSGDPEGGG-NH2; disulfide 6-17), the Inhibition [1] is reported as “++++ (signifies very strong inhibition (˜100% inhibition at 100 μM; with IC50 0.15 μM))”.
In the case of `C[C@H](CS)C(=O)N1CCC[C@H]1C(=O)O` [captopril], the “blockade of ACE-2 formation of A1-9 from angiotensin I” value [2] is listed as “not blocked”.
In the case of “angiotensin 1-9 (DRVYIHPFH; Angiotensin 1-9; UniProt P01019 25-33, looked up) [A1-9, nonapeptide formed by removal of the C-terminal leucine from angiotensin I]”, the “effect on pressor response elicited by angiotensin II” value ([3]; coinfused with angiotensin II (1-100 ng/kg/min), A1-9 at 1 μg/kg/min) is reported as “potentiated the pressor response elicted by angiotensin II in an additive fashion”, the “increase in mean arterial pressure, maximum” value ([3]; intravenous infusion 1-3 μg/kg/min) is reported as “approximately 30 mmHg” and the “potentiation of angiotensin II-mediated vasoconstriction” value ([4]; combined with angiotensin II, rat aortic rings) is reported as “superadditive or synergistic interaction”. For the same compound, the “maximum tension developed / effect on vascular tone, peptide alone” value ([4]; rat aortic rings) was “no effect on vascular tone; also recorded: minimal” and the “factor by which relative potency of angiotensin II was increased beyond simple addition” value ([4]; shift of angiotensin II dose-effect curve by A1-9, rat aortic rings, FIG. 1) was 11.6 (95% confidence limits of 3.02-44.7).
